Literature values in patent US20210198372A1, “METHODS FOR DOSING AND FOR MODULATION OF GENETICALLY ENGINEERED CELLS” (Juno Therapeutics, Inc., priority 2017, published 2021).

Settings: equivalence in terms of potency for various glucocorticoids; route (IV or PO; IV; none)

C[C@]12CCC(=O)C=C1CC[C@@H]1[C@@H]2[C@@H](O)C[C@@]2(C)[C@H]1CC[C@]2(O)C(=O)CO [Hydrocortisone]
Equivalency Potency: 20

C[C@H]1C[C@@H]2[C@H]([C@@H](O)C[C@@]3(C)[C@H]2CC[C@]3(O)C(=O)COC(=O)CCC(=O)O)[C@@]2(C)C=CC(=O)C=C12 [Methylprednisolone sodium succinate]
Equivalency Potency: 4

C[C@]12C=CC(=O)C=C1CC[C@@H]1[C@@H]2[C@@H](O)C[C@@]2(C)[C@H]1CC[C@]2(O)C(=O)CO [Prednisolone]
Equivalency Potency: 5
